Patent USRE50528E1, “Compounds and compositions for modulating EGFR mutant kinase activities” (Yuhan Corporation, priority 2014, dated 2025)

Legend:
[1] = target: T1, EGFR mutant Del19 (E746-A750) (Homo sapiens, UniProt P00533, DEL746-750); assay: Kinase inhibition assay, EGFR del E746-A750; format: biochemical; details: read-out: EGFR mutants Del19 (E746-A750);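 also: truncated human EGFR mutant kinase, two-hour preincubation with compound, then one-hour reaction with ATP and ULight-PolyGT peptide, LANCE Europium-antibody phosphorylation readout, IC50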
T1 construct: truncated human JAK3, EGFR mutants such as del E746-A750; purchased Carna Biosciences

p-EGFR wildtype = target: T2, p-EGFR wildtype (Homo sapiens, UniProt P00533); assay: Western analysis, H1299 p-EGFR wildtype; format: cell-based; details: for inhibition against p-EGFR wildtype (in words): Western, FIG. 1; for IC50: molecular potency, 4 hours, 3 nM EGF ligand
T2 construct: endogenous in cells; host or cells: H1299

p-EGFR L858R/T790M = target: T3, p-EGFR L858R/T790M (Homo sapiens, UniProt P00533, L858R/T790M); assay: Western analysis, H1975 p-EGFR L858R/T790M; format: cell-based; details: for Selectivity over wildtype: p-wildtype over p-EGFR L858R, T790M: H1299 vs H1975; for inhibition against p-EGFR L858R/T790M (in words): Western, FIG. 1; for IC50: molecular potency, 4 hours
T3 construct: phosphorylation of mutant EGFR in NSCLC lines H1975; endogenous in cells; host or cells: H1975

SYK = target: T4, SYK (Homo sapiens, UniProt P43405); assay: Kinase inhibition assay, SYK; format: biochemical; details: for IC50: biochemical potency;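 as to all read-outs here: purified full-length human SYK pre-incubated 30 min with compound, then ULight-TK peptide phosphorylation for 1 h, detected with Europium-labeled antibody in Lance buffer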
T4 construct: Purified human, full-length SYK, KDR; purchased Carna Biosciences

EGFR mutant T790M = target: T5, EGFR mutant T790M (Homo sapiens, UniProt P00533, T790M); assay: Kinase inhibition assay, EGFR mutant T790M; details: biochemical potency;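 also: truncated human EGFR mutant enzyme preincubated two hours with compound, then ATP plus ULight-PolyGT peptide for one hour, Europium-labeled antibody LANCE detection, IC50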
T5 construct: truncated human JAK3, EGFR mutants such as del E746-A750; purchased Carna Biosciences

H2073 (EGFR wildtype) = assay: Cell viability assay, H2073; format: cell-based; details: for IC50: NCI-H2073, cellular potency, 72-hour incubation, ATPLite;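 as to all read-outs here: NSCLC cell line whose survival relies on wildtype EGFR, treated with serially diluted compound, cytotoxic effect judged from remaining cell viability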
[2] = test system: H1975 (EGFR L858R/T790M mutant); assay: Cell viability assay, H1975; format: cell-based; details: for IC50: Homo sapiens, NCI-H1975, cellular potency, 72-hour incubation, ATPLite, read-out: EGFR Mutants H1975; for Selectivity over wildtype, Wildtype vs mutant H2073/H1975 (fold): cellular potency ratio;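 as to all read-outs here: NSCLC cells whose survival relies on EGFR L858R/T790M, exposed 72 h to serially diluted compound, ATP-based viability readout, with the H2073 line (wildtype EGFR dependent) as wildtype comparator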
EGFR mutant Del19/T790M = target: T6, EGFR mutant Del19/T790M (Homo sapiens, UniProt P00533, DEL746-750/T790M); assay: Kinase inhibition assay, EGFR del E746-A750/T790M; format: biochemical; details: read-out: EGFR mutants Del19/T790M
T6 construct: truncated human JAK3, EGFR mutants such as del E746-A750; purchased Carna Biosciences

EGFR mutant L858R = target: T7, EGFR mutant L858R (Homo sapiens, UniProt P00533, L858R); assay: Kinase inhibition assay, EGFR L858R; format: biochemical; details: read-out: EGFR mutants L858R;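 also: truncated human EGFR L858R kinase with compound preincubation, ULight-PolyGT peptide phosphorylation read by Europium-antibody Lance detection, IC50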
T7 construct: truncated human JAK3, EGFR mutants such as del E746-A750; purchased Carna Biosciences

KDR = target: T8, KDR (Homo sapiens, UniProt P35968); assay: Kinase inhibition assay, KDR; format: biochemical; details: for IC50: biochemical potency;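 as to all read-outs here: purified full-length human KDR, 30 min preincubation with compound, then 1 h reaction with ATP and Ulight-Jak1 peptide substrate, phosphorylation read by Lance Europium antibody detection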
T8 construct: Purified human, full-length SYK, KDR; purchased Carna Biosciences

[3] = test system: PC9 (EGFR del E746-A750 mutant); assay: Cell viability assay, PC9; format: cell-based; details: for Selectivity over wildtype, Wildtype vs mutant H2073/PC9 (fold): cellular potency ratio; for IC50: cellular potency, 72-hour incubation, ATPLite, read-out: EGFR Mutants PC9;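 as to all read-outs here: NSCLC PC9 cells, whose viability relies on EGFR del E746-A750, exposed to serially diluted compound for 72 h at 37 °C, ATPLite read-out, IC50, H2073 as EGFR wildtype line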
p-EGFR del E746-A750 = target: T9, p-EGFR del E746-A750 (Homo sapiens, UniProt P00533, DEL746-750); assay: Western analysis, PC9 p-EGFR del E746-A750; format: cell-based; details: for Selectivity over wildtype: p-wildtype over p-EGFR del19: H1299 vs PC9; for inhibition against p-EGFR del E746-A750 (in words): Western, FIG. 1; for IC50: molecular potency, 4 hours, read-out: PC9 p-EGFR del 19 (E746-A750)
T9 construct: phosphorylation of mutant EGFR in NSCLC lines PC9; endogenous in cells; host or cells: PC9

JAK3 = target: T10, JAK3 (Homo sapiens, UniProt P52333); assay: Kinase inhibition assay, JAK3; details: biochemical potency;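 also: IC50 against purified truncated human JAK3 preincubated with compound, then reacted with ATP and ULight-Jak1 peptide, phosphorylation read by Europium-labeled antibody LANCE detection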
T10 construct: EGFR and JAK3 (JH1domain-catalytic) kinases, and mutant forms thereof; purchased Carna Biosciences

EGFR mutant L858R/T790M = target: T11, EGFR mutant L858R/T790M (Homo sapiens, UniProt P00533, L858R/T790M); assay: Kinase inhibition assay, EGFR L858R/T790M; format: biochemical; details: read-out: EGFR mutants L858R/T790M;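 also: truncated human enzyme preincubated two hours with compound, then one hour with one millimolar ATP and ULight-PolyGT peptide, Europium-labeled antibody detection, IC50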
T11 construct: truncated human JAK3, EGFR mutants such as del E746-A750; purchased Carna Biosciences

[4] = approximate ATP Km concentration

T2 sequence (P00533 25-1210): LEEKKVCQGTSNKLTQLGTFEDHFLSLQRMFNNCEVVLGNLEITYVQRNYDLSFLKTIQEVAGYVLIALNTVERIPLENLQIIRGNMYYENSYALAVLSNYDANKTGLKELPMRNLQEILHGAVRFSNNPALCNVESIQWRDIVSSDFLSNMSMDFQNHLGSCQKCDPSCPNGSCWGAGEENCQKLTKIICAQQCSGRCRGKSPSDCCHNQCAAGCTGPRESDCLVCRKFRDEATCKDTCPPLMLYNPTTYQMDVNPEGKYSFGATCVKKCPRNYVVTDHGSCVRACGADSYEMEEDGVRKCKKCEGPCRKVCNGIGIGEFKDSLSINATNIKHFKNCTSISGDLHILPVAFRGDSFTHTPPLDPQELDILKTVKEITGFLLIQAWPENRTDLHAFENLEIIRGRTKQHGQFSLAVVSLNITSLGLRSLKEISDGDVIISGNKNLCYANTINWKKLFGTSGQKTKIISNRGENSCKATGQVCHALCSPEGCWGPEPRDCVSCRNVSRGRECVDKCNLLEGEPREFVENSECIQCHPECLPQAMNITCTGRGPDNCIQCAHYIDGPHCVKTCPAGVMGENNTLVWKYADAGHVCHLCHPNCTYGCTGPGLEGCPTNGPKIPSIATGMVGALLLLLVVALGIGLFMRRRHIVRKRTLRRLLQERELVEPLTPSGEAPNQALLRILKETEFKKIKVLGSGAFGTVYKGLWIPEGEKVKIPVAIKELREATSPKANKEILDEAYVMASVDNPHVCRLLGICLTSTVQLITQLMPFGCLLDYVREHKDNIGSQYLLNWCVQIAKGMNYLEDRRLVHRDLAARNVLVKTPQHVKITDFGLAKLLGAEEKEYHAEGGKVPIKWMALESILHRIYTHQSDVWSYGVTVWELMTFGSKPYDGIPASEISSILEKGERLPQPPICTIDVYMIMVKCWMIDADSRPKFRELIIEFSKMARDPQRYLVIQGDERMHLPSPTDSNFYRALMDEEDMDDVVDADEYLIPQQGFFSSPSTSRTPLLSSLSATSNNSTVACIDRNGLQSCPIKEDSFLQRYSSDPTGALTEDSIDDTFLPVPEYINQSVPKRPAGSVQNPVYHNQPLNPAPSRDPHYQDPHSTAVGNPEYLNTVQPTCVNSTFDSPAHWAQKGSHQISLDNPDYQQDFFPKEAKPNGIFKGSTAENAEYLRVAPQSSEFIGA
T10 sequence (P52333 822-1111 limits assumed): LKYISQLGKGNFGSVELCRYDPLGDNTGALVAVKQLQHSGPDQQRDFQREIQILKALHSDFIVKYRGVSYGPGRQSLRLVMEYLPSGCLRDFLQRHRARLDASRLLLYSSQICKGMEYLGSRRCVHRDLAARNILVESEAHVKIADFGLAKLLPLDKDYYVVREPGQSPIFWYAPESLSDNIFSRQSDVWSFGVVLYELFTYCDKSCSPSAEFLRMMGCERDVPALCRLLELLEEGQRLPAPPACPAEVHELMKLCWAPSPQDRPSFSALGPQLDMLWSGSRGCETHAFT
T3 sequence (P00533 25-1210 T790M/L858R): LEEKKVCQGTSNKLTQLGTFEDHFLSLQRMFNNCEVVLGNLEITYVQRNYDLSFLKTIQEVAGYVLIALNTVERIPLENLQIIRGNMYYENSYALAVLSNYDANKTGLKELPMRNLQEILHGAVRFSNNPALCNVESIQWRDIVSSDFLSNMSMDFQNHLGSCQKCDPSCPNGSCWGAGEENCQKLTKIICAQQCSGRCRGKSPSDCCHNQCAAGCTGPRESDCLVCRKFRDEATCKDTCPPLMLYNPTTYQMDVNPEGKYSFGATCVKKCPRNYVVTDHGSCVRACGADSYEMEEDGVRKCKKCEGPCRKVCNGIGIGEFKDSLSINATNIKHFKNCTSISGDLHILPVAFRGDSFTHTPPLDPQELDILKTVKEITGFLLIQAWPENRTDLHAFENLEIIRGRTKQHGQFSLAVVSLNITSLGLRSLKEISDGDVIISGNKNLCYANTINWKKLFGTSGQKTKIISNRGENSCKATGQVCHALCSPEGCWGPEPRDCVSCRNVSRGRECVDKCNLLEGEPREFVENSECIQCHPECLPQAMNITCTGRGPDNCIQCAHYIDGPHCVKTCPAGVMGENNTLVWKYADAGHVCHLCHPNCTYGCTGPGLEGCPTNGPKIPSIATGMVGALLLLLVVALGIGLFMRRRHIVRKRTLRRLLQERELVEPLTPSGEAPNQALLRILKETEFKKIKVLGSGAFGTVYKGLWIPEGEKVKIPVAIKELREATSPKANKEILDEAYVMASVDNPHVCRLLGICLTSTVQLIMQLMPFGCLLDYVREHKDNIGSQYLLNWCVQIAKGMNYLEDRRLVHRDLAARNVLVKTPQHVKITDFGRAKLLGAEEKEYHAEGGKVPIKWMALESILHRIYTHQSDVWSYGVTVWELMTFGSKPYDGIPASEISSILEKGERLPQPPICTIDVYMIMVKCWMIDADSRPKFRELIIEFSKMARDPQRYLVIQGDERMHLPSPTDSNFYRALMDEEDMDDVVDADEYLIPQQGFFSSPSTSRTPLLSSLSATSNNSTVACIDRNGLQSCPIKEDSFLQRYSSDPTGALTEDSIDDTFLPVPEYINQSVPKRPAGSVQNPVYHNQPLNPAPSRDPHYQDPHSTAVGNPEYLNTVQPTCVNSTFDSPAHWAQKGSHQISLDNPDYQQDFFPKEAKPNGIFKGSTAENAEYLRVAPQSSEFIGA
T8 sequence (P35968 20-1356): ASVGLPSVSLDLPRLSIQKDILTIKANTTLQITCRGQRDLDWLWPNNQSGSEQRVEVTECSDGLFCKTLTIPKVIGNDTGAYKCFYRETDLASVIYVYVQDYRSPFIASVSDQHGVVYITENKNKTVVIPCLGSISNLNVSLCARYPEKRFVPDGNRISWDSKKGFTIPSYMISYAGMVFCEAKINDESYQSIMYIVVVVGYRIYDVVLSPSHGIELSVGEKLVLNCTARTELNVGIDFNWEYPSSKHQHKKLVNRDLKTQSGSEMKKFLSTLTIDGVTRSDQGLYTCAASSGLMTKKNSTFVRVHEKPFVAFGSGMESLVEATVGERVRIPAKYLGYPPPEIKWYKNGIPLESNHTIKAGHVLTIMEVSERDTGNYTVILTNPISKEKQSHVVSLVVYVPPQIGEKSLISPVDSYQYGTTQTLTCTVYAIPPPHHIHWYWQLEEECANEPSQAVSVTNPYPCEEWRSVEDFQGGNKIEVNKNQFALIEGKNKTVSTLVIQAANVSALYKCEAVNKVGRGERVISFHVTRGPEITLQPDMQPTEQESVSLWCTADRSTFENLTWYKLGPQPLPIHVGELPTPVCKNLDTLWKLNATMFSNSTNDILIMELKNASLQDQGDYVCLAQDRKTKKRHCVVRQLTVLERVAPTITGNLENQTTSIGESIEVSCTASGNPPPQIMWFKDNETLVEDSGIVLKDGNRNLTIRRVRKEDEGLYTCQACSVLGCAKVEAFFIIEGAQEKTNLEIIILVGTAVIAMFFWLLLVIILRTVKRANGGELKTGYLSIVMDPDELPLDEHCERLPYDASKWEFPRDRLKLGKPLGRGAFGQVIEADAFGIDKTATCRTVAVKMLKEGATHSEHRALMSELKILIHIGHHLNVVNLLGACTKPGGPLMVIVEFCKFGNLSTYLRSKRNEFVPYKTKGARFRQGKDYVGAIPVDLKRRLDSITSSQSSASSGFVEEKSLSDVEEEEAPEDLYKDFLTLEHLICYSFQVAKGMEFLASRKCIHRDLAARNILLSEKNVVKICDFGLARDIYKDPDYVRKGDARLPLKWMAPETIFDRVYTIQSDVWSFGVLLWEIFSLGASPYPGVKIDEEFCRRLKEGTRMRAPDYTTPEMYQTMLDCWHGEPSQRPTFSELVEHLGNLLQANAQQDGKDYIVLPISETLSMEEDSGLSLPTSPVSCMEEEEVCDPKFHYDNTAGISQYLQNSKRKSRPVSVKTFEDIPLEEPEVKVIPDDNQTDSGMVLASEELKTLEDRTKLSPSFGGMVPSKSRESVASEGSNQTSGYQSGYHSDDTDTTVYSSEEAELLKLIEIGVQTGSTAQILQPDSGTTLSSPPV
T7 sequence (P00533 669-1210 L858R limits assumed): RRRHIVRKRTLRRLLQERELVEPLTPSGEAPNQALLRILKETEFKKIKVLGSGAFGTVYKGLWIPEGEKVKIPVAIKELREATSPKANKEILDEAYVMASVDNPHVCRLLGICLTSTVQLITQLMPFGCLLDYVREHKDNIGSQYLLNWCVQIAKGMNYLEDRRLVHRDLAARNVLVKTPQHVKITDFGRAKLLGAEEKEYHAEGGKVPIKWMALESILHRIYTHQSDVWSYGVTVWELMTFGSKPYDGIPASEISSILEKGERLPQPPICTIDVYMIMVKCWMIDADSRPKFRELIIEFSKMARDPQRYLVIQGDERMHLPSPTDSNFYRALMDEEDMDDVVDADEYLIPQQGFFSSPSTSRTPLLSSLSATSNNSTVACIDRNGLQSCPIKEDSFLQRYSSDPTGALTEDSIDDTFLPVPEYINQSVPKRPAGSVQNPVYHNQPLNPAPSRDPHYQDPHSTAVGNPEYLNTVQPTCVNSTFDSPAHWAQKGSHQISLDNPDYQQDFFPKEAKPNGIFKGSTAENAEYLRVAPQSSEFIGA
T6 sequence (P00533 with tags, fused parts or gaps DEL746-750/T790M limits assumed): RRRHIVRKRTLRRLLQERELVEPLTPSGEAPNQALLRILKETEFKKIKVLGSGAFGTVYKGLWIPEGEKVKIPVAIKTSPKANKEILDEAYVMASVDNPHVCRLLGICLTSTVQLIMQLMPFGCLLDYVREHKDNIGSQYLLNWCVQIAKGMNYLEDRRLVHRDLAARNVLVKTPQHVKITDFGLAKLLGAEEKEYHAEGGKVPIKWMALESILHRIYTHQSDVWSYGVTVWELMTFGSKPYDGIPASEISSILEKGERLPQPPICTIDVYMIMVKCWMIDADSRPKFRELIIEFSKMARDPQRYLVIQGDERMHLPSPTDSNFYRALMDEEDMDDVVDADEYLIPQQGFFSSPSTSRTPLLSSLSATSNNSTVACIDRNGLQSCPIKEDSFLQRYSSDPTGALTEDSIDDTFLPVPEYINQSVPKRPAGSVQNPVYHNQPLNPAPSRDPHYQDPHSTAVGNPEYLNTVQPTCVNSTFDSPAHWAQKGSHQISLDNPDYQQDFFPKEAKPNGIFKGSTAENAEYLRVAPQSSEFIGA

| SMILES | IC50 [1] [nM] | inhibition against p-EGFR wildtype (in words) (p-EGFR wildtype) | IC50 (p-EGFR wildtype) [nM] | Selectivity over wildtype: p-wildtype over p-EGFR L858R, T790M (p-EGFR L858R/T790M) | inhibition against p-EGFR L858R/T790M (in words) (p-EGFR L858R/T790M) | IC50 (p-EGFR L858R/T790M) [nM] | IC50 (SYK) [nM] | IC50 (EGFR mutant T790M) [nM] | IC50 (H2073 (EGFR wildtype)) [nM] | IC50 [2] [nM] | Selectivity over wildtype, Wildtype vs mutant H2073/H1975 (fold) [2] | IC50 (EGFR mutant Del19/T790M) [nM] | IC50 (EGFR mutant L858R) [nM] | IC50 (KDR) [nM] | Selectivity over wildtype, Wildtype vs mutant H2073/PC9 (fold) [3] | IC50 [3] [nM] | Selectivity over wildtype: p-wildtype over p-EGFR del19 (p-EGFR del E746-A750) | IC50 (p-EGFR del E746-A750) [nM] | IC50 (JAK3) [nM] | IC50 (EGFR mutant L858R/T790M) [nM] | other results |
| --- | --- | --- | --- | --- | --- | --- | --- | --- | --- | --- | --- | --- | --- | --- | --- | --- | --- | --- | --- | --- | --- |
| C=CC(=O)Nc1cc(Nc2nccc(-n3cc(CN(C)C)c(-c4ccccc4)n3)n2)c(OC)cc1N1CCOCC1 [Compound 73, N-(5-(4-(4-((dimethylamino)methyl)-3-phenyl-1H-pyrazol-1-yl)pyrimidin-2-ylamino)-4-methoxy-2-morpholinophenyl)acrylamide] | < 20 | not p-EGFR wildtype | 201 to 1000 | 20-100 fold | potent inhibition | < 20 | 201 to 1000 | < 20 | > 1000 | < 20 | >200 fold | < 20 | < 20 | > 1000 | >200 fold | < 20 | 20-100 fold | < 20 | < 20 | < 20 | inhibition of the kinase activity of SYK (in words) (SYK; [4]): poorly inhibit; inhibition in H2073 cell (in words) (H2073 (EGFR wildtype); cell viability): not in H2073; inhibition in H1975 cell (in words) ([2]; cell viability): potent inhibition; Selectivity over wildtype, Wildtype vs mutant H2073/H1975 (fold) ([2]; listed as compound 73): > 200 fold; inhibition of the kinase activity of KDR (in words) (KDR; [4]): poorly inhibit; inhibition in PC9 cell (in words) ([3]; cell viability): potent inhibition; Selectivity over wildtype, Wildtype vs mutant H2073/PC9 (fold) ([3]; listed as compound 73): > 200 fold; inhibition against p-EGFR del E746-A750 (in words) (p-EGFR del E746-A750): potent inhibition |
| C=CC(=O)Nc1cc(Nc2nccc(-n3cc(CN4CCC4)c(-c4ccccc4)n3)n2)c(OC)cc1N1CCOCC1 [Compound 78, N-(5-(4-(4-(azetidin-1-ylmethyl)-3-phenyl-1H-pyrazol-1-yl)pyrimidin-2-ylamino)-4-methoxy-2-morpholinophenyl)acrylamide] | < 20 |  | > 1000 | 101-200 fold |  | < 20 | > 1000 | < 20 | > 1000 | < 20 | >200 fold | < 20 | < 20 | > 1000 | >200 fold | < 20 | >200 fold | < 20 | 20 to 200 | < 20 |  |
| C=CC(=O)Nc1cc(Nc2ncc(C)c(-n3cc(CN4C[C@H](O)[C@H](OC)C4)c(C)n3)n2)c(OC)cc1N1CCOCC1 [Compound 26, N-(5-(4-(4-(((3S,4R)-3-hydroxy-4-methoxypyrrolidin-1-yl)methyl)-3-methyl-1H-pyrazol-1-yl)-5-methylpyrimidin-2-ylamino)-4-methoxy-2-morpholinophenyl)acrylamide] | < 20 | not p-EGFR wildtype | > 1000 | >200 fold | potent inhibition | < 20 | 201 to 1000 | < 20 | > 1000 | 20 to 200 | 101-200 fold | < 20 | < 20 | > 1000 | 20-100 fold | 20 to 200 | >200 fold | < 20 | < 20 | < 20 | Selectivity over wildtype: p-wildtype over p-EGFR L858R, T790M (p-EGFR L858R/T790M; listed as compound 26): 1440.3 fold; Selectivity over wildtype: p-wildtype over p-EGFR del19 (p-EGFR del E746-A750; listed as compound 26): 572.4 fold; inhibition against p-EGFR del E746-A750 (in words) (p-EGFR del E746-A750): potent inhibition |
| C=CC(=O)Nc1cc(Nc2nccc(-n3cc(CN(C)C)c(C4CC4)n3)n2)c(OC)cc1N1CCOCC1 [Compound 74, N-(5-(4-(3-cyclopropyl-4-((dimethylamino)methyl)-1H-pyrazol-1-yl)pyrimidin-2-ylamino)-4-methoxy-2-morpholinophenyl)acrylamide] | < 20 |  | 201 to 1000 | 20-100 fold |  | < 20 | 20 to 200 | < 20 | > 1000 | < 20 | >200 fold | < 20 | < 20 | > 1000 | >200 fold | < 20 | 101-200 fold | < 20 | < 20 | < 20 |  |
| C=CC(=O)Nc1cc(Nc2nccc(-n3cc(CN(C)C)c(C)n3)n2)c(OC)cc1N1CCOCC1 [Compound 46, N-(5-(4-(4-((dimethylamino)methyl)-3-methyl-1H-pyrazol-1-yl)pyrimidin-2-ylamino)-4-methoxy-2-morpholinophenyl)acrylamide] | < 20 |  | 20 to 200 | 20-100 fold |  | < 20 | 201 to 1000 | < 20 | > 1000 | 20 to 200 | 101-200 fold | < 20 | < 20 | > 1000 | >200 fold | < 20 | 20-100 fold | < 20 | < 20 | < 20 |  |
